Data on two compounds can be found in paper PMC10073475, “Effect of mTOR inhibitors on sodium taurocholate cotransporting polypeptide (NTCP) function in vitro” (Frontiers in Pharmacology, 2023).

Test [1] has as its target T1, sodium taurocholate cotransporting polypeptide (NTCP) (Homo sapiens, UniProt Q14973).
T1 construct: gene SLC10A1; GFP-tagged human NTCP (NM_003049)
T1 sequence (Q14973 1-349): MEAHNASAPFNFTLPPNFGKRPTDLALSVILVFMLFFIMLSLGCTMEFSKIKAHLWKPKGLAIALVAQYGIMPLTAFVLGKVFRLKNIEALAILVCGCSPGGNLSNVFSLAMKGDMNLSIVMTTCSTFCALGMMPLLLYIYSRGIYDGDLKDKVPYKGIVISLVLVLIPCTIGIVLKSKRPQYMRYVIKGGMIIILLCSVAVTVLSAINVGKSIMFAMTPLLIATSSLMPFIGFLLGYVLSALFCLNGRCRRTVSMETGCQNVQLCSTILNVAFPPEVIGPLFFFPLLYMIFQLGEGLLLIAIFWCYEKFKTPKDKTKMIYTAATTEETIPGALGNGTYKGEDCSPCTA
The test can be described thus: [3H]-taurocholate uptake inhibition in NTCP-GFP Flp-In T-REx […] cells (IC50 […] in differentiated HuH-7). The class given is cell-based.

For test [2], the target named is T1, sodium taurocholate cotransporting polypeptide (NTCP). Description: [3H]-taurocholate uptake inhibition at […] in NTCP-GFP Flp-In T-REx […] and differentiated HuH-7 cells. The class given is cell-based.

Turning to `CO[C@H]1C[C@@H]2CC[C@@H](C)[C@@](O)(O2)C(=O)C(=O)N2CCCC[C@H]2C(=O)O[C@H]([C@H](C)C[C@@H]2CC[C@@H](OCCO)[C@H](OC)C2)CC(=O)[C@H](C)/C=C(\C)[C@@H](O)[C@@H](OC)C(=O)[C@H](C)C[C@H](C)/C=C/C=C/C=C/1C` [everolimus], in test [1], the IC50 (in general, the concentration that gives 50% inhibition) is 6.7 ± 1.3 µM.

On to `CO[C@H]1C[C@@H]2CC[C@@H](C)[C@@](O)(O2)C(=O)C(=O)N2CCCC[C@H]2C(=O)O[C@H]([C@H](C)C[C@@H]2CC[C@@H](OC(=O)C(C)(CO)CO)[C@H](OC)C2)CC(=O)[C@H](C)/C=C(\C)[C@@H](O)[C@@H](OC)C(=O)[C@H](C)C[C@H](C)/C=C/C=C/C=C/1C` [temsirolimus], for which the “[3H]-taurocholate uptake inhibition at 10 μM in NTCP-GFP Flp-In T-REx 293 and di” value in test [2] was “everolimus, sirolimus and temsirolimus significantly inhibited TCA accumulation in Na^+-containing ECF buffer and NTCP-mediated TCA accumulation”.
